# Target: Transient receptor potential cation channel subfamily V member 1 (Homo sapiens, UniProt Q8NER1)
# Experiment: Activation Assay: The cDNA for human TRPV1 (hTRPV1) was isolated by reverse transcriptase-polymerase chain reaction (RT-PCR) from human small intestine poly A+ RNA supplied by Clontech (Palo Alto, Calif.) using primers designed surrounding the initiation and termination codons identical to the published sequences (Hayes et al. Pain 2000, 88, 205-215). The resulting cDNA PCR products were subcloned into pCIneo mammalian expression vector (Promega) and fully sequenced using fluorescent dye-terminator reagents (Prism, PerkinElmer Applied Biosystems Division) and a PerkinElmer Applied Biosystems Model 373 DNA sequencer or Model 310 genetic analyzer. Expression plasmids encoding the hTRPV1 cDNA were transfected into HEK293 cells using Lipofectamine. Forty-eight hours after transfection, the neomycin-resistant cells were selected with growth medium containing 800 ug/mL Geneticin (Life Technologies, formerly Gibco BRL). Surviving individual colonies were isolated and screened for TRPV1 activity.
# Assay type: cell-based
# Sequence of Transient receptor potential cation channel subfamily V member 1 (Q8NER1 whole entry): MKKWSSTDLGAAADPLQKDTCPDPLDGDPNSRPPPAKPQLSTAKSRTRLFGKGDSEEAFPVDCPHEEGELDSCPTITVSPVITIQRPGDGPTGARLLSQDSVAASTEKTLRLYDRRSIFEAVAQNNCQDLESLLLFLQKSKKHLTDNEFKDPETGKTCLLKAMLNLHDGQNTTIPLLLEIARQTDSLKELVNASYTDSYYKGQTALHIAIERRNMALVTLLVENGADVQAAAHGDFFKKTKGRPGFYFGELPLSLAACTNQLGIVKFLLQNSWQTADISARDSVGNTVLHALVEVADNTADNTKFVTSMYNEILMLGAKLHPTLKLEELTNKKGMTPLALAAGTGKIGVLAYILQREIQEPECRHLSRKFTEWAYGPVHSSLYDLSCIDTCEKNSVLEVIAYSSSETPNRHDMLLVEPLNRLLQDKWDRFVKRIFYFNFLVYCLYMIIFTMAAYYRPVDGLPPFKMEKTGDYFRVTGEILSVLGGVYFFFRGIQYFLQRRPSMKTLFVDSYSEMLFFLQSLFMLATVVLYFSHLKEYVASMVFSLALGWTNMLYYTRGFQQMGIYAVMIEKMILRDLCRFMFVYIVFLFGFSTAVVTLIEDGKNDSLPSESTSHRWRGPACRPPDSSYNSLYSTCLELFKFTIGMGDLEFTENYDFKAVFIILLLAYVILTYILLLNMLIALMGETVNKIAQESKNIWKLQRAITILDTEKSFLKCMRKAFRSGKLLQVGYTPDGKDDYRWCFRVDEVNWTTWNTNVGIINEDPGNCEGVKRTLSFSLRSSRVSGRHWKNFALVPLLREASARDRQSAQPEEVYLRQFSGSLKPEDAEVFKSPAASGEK
row,SMILES,IC50
1,O=C1CCc2ccc(NC(=O)N[C@@H]3CC(CF)(CF)Oc4cc(Cl)ccc43)cc2N1,35 nM
2,CN1C(=O)NCc2c(NC(=O)N[C@@H]3CC(CF)(CF)Oc4c3ccc(Cl)c4F)cccc21,25 nM
3,CN1C(=O)NCc2c(NC(=O)N[C@@H]3CC(C)(C)Oc4ccccc43)cccc21,37 nM
4,CN1C(=O)NCc2c(NC(=O)N[C@@H]3CC(C)(C)Oc4cc(Cl)ccc43)cccc21,42 nM
5,Cn1c(=O)ccc2c(NC(=O)N[C@@H]3CC(C)(C)Oc4cc(F)ccc43)cccc21,10 nM
6,CCC1(CC)C[C@@H](NC(=O)Nc2cccc3c2CNC(=O)N3C)c2ccc(F)cc2O1,24 nM
7,CN1C(=O)NCc2c(NC(=O)N[C@@H]3CC(C)(C)c4ccccc43)cccc21,29 nM
8,CN1Cc2ccc(NC(=O)N[C@@H]3CC(C)(C)Oc4c(F)cccc43)cc2NC1=O,820 nM
9,CN1C(=O)CCc2ccc(NC(=O)N[C@@H]3CCOc4c3cccc4C(F)(F)F)cc21,94 nM

# Reference: ChEMBL document CHEMBL3638947, “TRPV1 antagonists” (2015)
